Consider seven compounds from US20030157035A1, “PHOTO STABLE ORGANIC SUNSCREEN COMPOUNDS WITH ANTIOXIDANT PROPERTIES AND COMPOSITIONS OBTAINED THEREFROM” (EM Industries, priority 2001, published 2003).

Where two headings read alike, the source gives them in different places.

Data set [1] can be described thus: Photostability in Xe-arc solar simulator (loss of UV absorption). As to conditions: 70% ethanol/30% water, about 250 J/cm^2.
Experimental: Compounds are illuminated in a solar simulator incorporating a 1 kw Xe arc lamp, optical bench and illumination chamber. The entire output of the illumination system is focused onto the face of a 1 centimeter Cuvette (an area of 4 cm^2) that contains the dilute samples of a compound of Formula I. The samples experience roughly 250 J/cm^2 of radiation between 290 and 400 nm over a period of two hours. The solutions contain between 0.0056 mg/ml and 2.5 mg/ml.
A solar simulator used for illumination of the samples in the experiments is constructed incorporating a 1 kw Xe arc lamp, optical bench and sample illumination chamber. The lamp output is filtered through a water filter with a course window to remove most of the infrared radiation and optical filters to remove wavelengths below 290 mn. The output of the illumination system is focused onto the face of a 1 cm quartz Cuvette that is thermally equilibrated with a constant temperature water bath at 25° C. A magnetic stir is mounted under the Cuvette so that the samples could be stirred while being illuminated. An electric shutter is controlled by a dark room timer to provide precise control of illumination times. The solar simulator is constructed to provide illumination that closely matches terrestrial sunlight. The solar simulator delivers roughly 250 J/cm^2 over a 2-hour period of illumination in a 290-490 nm range. This irradiance is determined using two nitrobenzaldehyde chemical actinometry. The irradiance is much higher than other solar simulator systems which typically illuminate a large area in order to illuminate many samples simultaneously rather than being focused down to a very small area.
(§1) Each sunscreen compound is dissolved in 70% ethanol/30% water and the UV visible absorption spectrum measured with a Shimadza UV 2101-double beam spectrophotometer using the solvent as reference. A control solution of Octocrylene is prepared and the UV-visible absorption spectrum measured. Each solution is then illuminated for two hours in the solar simulator. After illumination, the absorption spectrum is again measured for each solution.
Data set [2] in a line: DPPH test method (reducing activity of DPPH radical). It is filed as biochemical. The note with it: absorbance at 517 nm after 20 minutes. The procedure: A DPPH working solution is then prepared by diluting 100 mL of this concentrate to a final volume of 250 mL (100 μM/mL). A blank 13×100 mm borosilicate glass screw top tube of ethanol (USP) is used to zero the spectrometer (Milton Roy, Spectronic 20+) at 517 nm and a control tube of DPPH working solution is measured under identical conditions, and taken as 0% activity. […] After 20 minutes, the absorbance of each sample is read at 517 nm.
The percent reducing activity (%RA) is calculated using the following equation: [formula]
Where A(0) is the absorbance value of the DPPH working solution at 517nm zeroed against an ethanol blank and A(20) is the absorbance at 517 nm, 20 minutes after combining the antioxidant with the DPPH working solution.
The concentration of antioxidant (mg/ml) in the final assay mixture is calculated based on the dilution of respective aliquots of each compound in the final assay volume and %RA tabulated and plotted as percent activity at each concentration in the dilution series.
The antioxidant activity of selected compounds of this invention was determined from their reducing activity of a DPPH radical.

Data set [3] can be described thus: Stabilization of Avobenzone under solar simulator illumination (HPLC). It is filed as physicochemical. The procedure: Individual solutions of selected sunscreen compounds (see Table 1) with Avobenzone were as follows. Each sunscreen compound was dissolved in 50% ethanol/50% H2O solution containing roughly an equal molar amount of Avobenzone. A similar solution containing Di-2-ethylhexyl-2,6-napthalene dicarboxylic acid (DENDA) and Avobenzone was also prepared. Each solution was then illuminated in the solar simulator as configured above for the photostability tests and aliquots of each solution were removed at 30-minute time intervals. These aliquots were injected into an HPLC and the loss of Avobenzone was followed with illumination time. The high performance liquid chromatograph (HPLC) used for all experiments reported therein incorporated a Spectra-Physics model P-200 pump with an Applied Biosystems model 785A UV-Visible detector with a Rheodyne manual injector incorporating a […] sample loop and a 150×4.6 mm reversed-phase C18 column (Alltech). All analyses were carried out under isocratic elution conditions using […] mixtures for the mobile phase at a flow rate of […] per minute. It was necessary to employ HPLC separation of Avobenzone from each of the sunscreen compounds to quantify Avobenzone due to the absorption spectra overlap with some of these compounds.

Data set [4] is described as follows: UV-visible absorption spectrum. The class given is physicochemical.
Experimental: as §1
Setting [5] is: Product/Avobenzone (1:1, w/w), % Loss of Avobenzone by HPLC, solar simulator, 2 hrs.

For `COc1cc(C=C(C(C)=O)C(=O)OCCC(C)C)ccc1O` [Iso-amyl-alpha-acetyl-3-methoxy-4-hydroxy-cinnamate], the “Photostability % Loss in 2 hrs” value in data set [1] is 4.1%. Further, in data set [2], the “% Reducing Activity of DPPH Radical at 30 μg/ml” value (“% Reducing Activity” below) was 22%. For the same compound, the “Stabilization of Avobenzone % Loss of Avobenzone in 2 hrs” value in data set [3] (setting [5]) is “insignificant”. In data set [4], the “λmax, nm (Ethanol)” value came to 339 nm.
As for `CCCCC(CC)COC(=O)C(=Cc1ccc(O)c(OC)c1)C(=O)OCC(CC)CCCC` (stereo not shown) [Di-(2-Ethylhexyl)-3-methoxy-4-hydroxy benzylidene malonate], the “% Reducing Activity” value in data set [2] is 7.4%. Besides, the “Stabilization of Avobenzone % Loss of Avobenzone in 2 hrs” value in data set [3] is on record as 4.5%. In addition, the “λmax, nm (Ethanol)” value in data set [4] stood at 332 nm.
On to `COc1cc(C=C(C(C)=O)C(=O)OCCC(C)C)cc(C(C)C)c1O` [Isoamyl-alpha-acetyl-3-methoxy-4-hydroxy-5-isopropyl-cinnamate], for which the “Photostability % Loss in 2 hrs” value in data set [1] is on record as 3.2%. For the same compound, the “% Reducing Activity” value in data set [2] is recorded as 28%. The “Stabilization of Avobenzone % Loss of Avobenzone in 2 hrs” value in data set [3] (setting [5]) is reported as “insignificant”. Moreover, the “λmax, nm (Ethanol)” value in data set [4] was found to be 341 nm.
Take `COc1ccc(C(=O)CC(=O)c2ccc(C(C)(C)C)cc2)cc1` [Avobenzone, reference compound]: the “Photostability % Loss in 2 hrs” value in data set [1] was 37%. Also, the “λmax, nm (Ethanol)” value in data set [4] is listed as 358 nm.
Take `COc1cc(C=C(C(=O)OCCC(C)C)C(=O)OCCC(C)C)ccc1O` [Di-isoamyl-3-methoxy-4-hydroxy benzylidene malonate]: the “% Reducing Activity” value in data set [2] was 9.5%. The “Stabilization of Avobenzone % Loss of Avobenzone in 2 hrs” value in data set [3] is reported as 3.8%. Further, the “λmax, nm (Ethanol)” value in data set [4] worked out at 333 nm.
As for `CCCCC(CC)COC(=O)C(C#N)=C(c1ccccc1)c1ccccc1` (stereo not shown) [Octocrylene, reference compound], in data set [1], the “Photostability % Loss in 2 hrs” value is listed as 2.8%. For the same compound, the “Stabilization of Avobenzone % Loss of Avobenzone in 2 hrs” value in data set [3] (setting [5]) was 1.5%. The “λmax, nm (Ethanol)” value in data set [4] came out at 303 nm.
Consider `CCCCC(CC)COC(=O)C(=Cc1cc(OC)c(O)c(C(C)C)c1)C(=O)OCC(CC)CCCC` (stereo not shown) [di-(2-ethyhexyl)-3-methoxy-4-hydroxy-5-isopropyl-benzylidene malonate], for which the “% Reducing Activity” value in data set [2] is reported as 11.2%. Also, the “Stabilization of Avobenzone % Loss of Avobenzone in 2 hrs” value in data set [3] is listed as 2.5%. Further, the “λmax, nm (Ethanol)” value in data set [4] was found to be 334 nm.
